Experimental data reported in a compilation of properties of binary mixtures (doi:10.1016/j.molliq.2021.116805).

Assay: xn = mol fraction of the nth substance listed
Conditions: 101 kPa

## CCCCCCCCCCCCCCCCCC[n+]1ccn(C)c1.O=S(=O)([N-]S(=O)(=O)C(F)(F)F)C(F)(F)F + CCCCCCCCCCCCCCCCn1cc[n+](C)c1.O=S(=O)([N-]S(=O)(=O)C(F)(F)F)C(F)(F)F
333 K, x2 = 0.621
  viscosity: 59.3 mPa·s
343 K, x2 = 0.621
  viscosity: 41.1 mPa·s
353 K, x2 = 0.621
  viscosity: 29.6 mPa·s

## CCCCCCCCCCCCCC[n+]1ccn(C)c1.O=S(=O)([N-]S(=O)(=O)C(F)(F)F)C(F)(F)F + CCCCCCCCCCCCCCCCn1cc[n+](C)c1.O=S(=O)([N-]S(=O)(=O)C(F)(F)F)C(F)(F)F
313 K, x1 = 0.6709
  viscosity: 102.6 mPa·s
323 K, x1 = 0.6709
  viscosity: 66.3 mPa·s
333 K, x1 = 0.6709
  viscosity: 45.2 mPa·s
343 K, x1 = 0.6709
  viscosity: 32 mPa·s
353 K, x1 = 0.6709
  viscosity: 23.4 mPa·s

## CCCCCCCCCCCCCCCCCC[n+]1ccn(C)c1.O=S(=O)([N-]S(=O)(=O)C(F)(F)F)C(F)(F)F + CCCCCCCCCCCCCC[n+]1ccn(C)c1.O=S(=O)([N-]S(=O)(=O)C(F)(F)F)C(F)(F)F
333 K, x2 = 0.7675
  viscosity: 49.6 mPa·s
343 K, x2 = 0.7675
  viscosity: 34.8 mPa·s
353 K, x2 = 0.7675
  viscosity: 25.4 mPa·s
